The text below walks through data of ChEMBL document CHEMBL1201862, “PubChem BioAssay data set” (2004).

Assay [1] has as its target T1, Runt-related transcription factor 1/Core-binding factor subunit beta (Homo sapiens, UniProt Q01196+Q13951). Nature of the assay: disruptors of Runt domain/CBFb-SMMHC interaction – biochemical, FRET, Cerulean-Runt, Venus-CBFb-SMMHC, uHTS, […] (AID 1434). The class given is protein assay.
Assay [2] has as its target T1, Runt-related transcription factor 1/Core-binding factor subunit beta. Description: Runt domain/CBFb-SMMHC interaction disruptors – biochemical, TR-FRET (AID 1438). The class given is protein assay.
For a further assay, the target named is Troponin, cardiac muscle (Homo sapiens, UniProt P19429+P45379+P63316). Description: Fluorescence-based biochemical high throughput dose response assay for activators of the calcium sensitivity of cardiac Regulated Thin Filaments (RTF). [Related pubchem assays (depositor defined):AID493008, AID493018, AID504382, AID504383]. The class given is protein-complex assay.

Assay [3] addresses T2, Corticotropin-releasing factor receptor 2/Corticotropin-releasing factor-binding protein (Homo sapiens, UniProt P24387+Q13324).
T2 sequence (Q13324 whole entry): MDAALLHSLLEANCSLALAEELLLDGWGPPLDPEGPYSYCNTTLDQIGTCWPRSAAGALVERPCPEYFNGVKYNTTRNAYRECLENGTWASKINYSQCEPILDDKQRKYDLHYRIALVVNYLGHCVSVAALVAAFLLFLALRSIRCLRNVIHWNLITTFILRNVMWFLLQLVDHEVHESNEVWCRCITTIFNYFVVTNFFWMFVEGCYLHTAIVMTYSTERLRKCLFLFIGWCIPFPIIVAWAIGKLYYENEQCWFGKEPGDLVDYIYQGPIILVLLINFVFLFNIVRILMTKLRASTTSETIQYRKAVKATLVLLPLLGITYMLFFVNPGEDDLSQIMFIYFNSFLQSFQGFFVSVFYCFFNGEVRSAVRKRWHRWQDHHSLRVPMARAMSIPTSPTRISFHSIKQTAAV
T2 sequence (P24387 whole entry): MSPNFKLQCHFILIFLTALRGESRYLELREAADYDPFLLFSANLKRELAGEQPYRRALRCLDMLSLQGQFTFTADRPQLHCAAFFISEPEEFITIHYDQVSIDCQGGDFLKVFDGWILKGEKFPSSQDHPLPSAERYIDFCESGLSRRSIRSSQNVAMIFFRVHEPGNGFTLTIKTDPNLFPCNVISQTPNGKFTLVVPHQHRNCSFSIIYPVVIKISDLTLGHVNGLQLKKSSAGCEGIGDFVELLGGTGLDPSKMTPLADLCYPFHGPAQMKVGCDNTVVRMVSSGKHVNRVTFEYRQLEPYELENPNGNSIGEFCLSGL
Nature of the assay: activators of CRF receptor 2 with binding protein – uHTS hits, confirmation (AID 602473). The class given is functional. Particulars: read-out: EC50_Mean.

In assay [4] the target is Sphingosine 1-phosphate receptor 1 (Homo sapiens, UniProt P21453). Description: Fluorescence-based counterscreen assay for S1P4 agonists: Cell-based dose response high throughput screening assay to identify agonists of the Sphingosine 1-Phosphate Receptor 1 (S1P1). [Related pubchem assays (depositor defined):AID1509, AID1523, AID1801, AID463107, AID463118, AID463119, AID463122, AID463123, AID463129, AID463225, AID504400, AID504460]. The class given is functional. For orientation: Counterscreens check selectivity or assay interference.

Assay [5] addresses T3, Sphingosine 1-phosphate receptor 4 (Homo sapiens, UniProt O95977).
T3 sequence (O95977 whole entry): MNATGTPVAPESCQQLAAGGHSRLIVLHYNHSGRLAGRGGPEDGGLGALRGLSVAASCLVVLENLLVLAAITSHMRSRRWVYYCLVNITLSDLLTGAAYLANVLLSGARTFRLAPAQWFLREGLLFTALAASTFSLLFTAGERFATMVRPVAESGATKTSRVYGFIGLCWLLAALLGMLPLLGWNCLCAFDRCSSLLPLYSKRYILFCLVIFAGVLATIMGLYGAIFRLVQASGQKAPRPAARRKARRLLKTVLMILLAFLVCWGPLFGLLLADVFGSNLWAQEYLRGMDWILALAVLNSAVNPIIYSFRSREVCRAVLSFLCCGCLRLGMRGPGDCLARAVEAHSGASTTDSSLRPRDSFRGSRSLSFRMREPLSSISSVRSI
Description: Fluorescence dose response cell-based high throughput screening assay for agonists of the Sphingosine 1-Phosphate Receptor 4 (S1P4). [Related pubchem assays: 1509 (Primary screen.), 1523 (Confirmation screen in triplicates.)]. The class given is functional.

Assay [6] has as its target DNA damage-inducible transcript 3 protein (Mus musculus, UniProt P35639). The class given is functional, Cricetulus griseus.
The target of a further assay is X-box-binding protein 1 (Homo sapiens, UniProt P17861). The class given is functional, Cricetulus griseus.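 Note: confirmatory dose-response counter-screen serving a CHOP assay.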

Structures are written as SMILES. Calls of active or inactive are those of the source.

As usually defined, the IC50 is the midpoint of a concentration-inhibition curve. With `CCNc1sc(C(=O)c2cccs2)c(N)c1-c1nc2ccccc2s1`, the figures for the IC50 in assay [1] and in assay [2] were > 100 µM (inactive) and 63.2 µM (inactive), respectively.

For `Cc1ccc[n+](-c2[n-]c(=O)sc2C=O)c1`, the EC50 on Troponin, cardiac muscle was 2.18 µM (active); in assay [3] it was 11.5 µM (active).

For `CCCN(CCC)c1ccc(/C=C/c2ccc3cc(OCC)ccc3n2)cc1`, the values for the EC50 in assay [4] and in assay [5] were > 5.53 µM (inactive) and > 49.8 µM (not active), respectively.

For `O=C(CSC1c2ccccc2-c2ccccc21)N/N=C/c1ccccc1`, the “Absolute IC50 (CHOP)” value in assay [6] worked out at 10 µM. Also, the “Absolute IC50 (XBP1)” value at X-box-binding protein 1 was 10 µM.
